Results from patent publication US20240226109A1, “CO-THERAPY WITH VECTOR AND NICOTINIC AGONIST” (OYSTER POINT PHARMA, INC., priority 2021, published 2024).

Key:
[1] = target: T1, nAChR subtype alpha3beta2 (Homo sapiens, UniProt P17787+P32297); test: nAChR agonist response (evoked current compared with ACh response) in cells expressing a nAChR subtype; assay type: cell-based; conditions: response relative to ACh response
T1 construct: expressed in transfected cells
From the text: (§1) In general, a nAChR agonist is a full agonist if it evokes a response upon binding to a given receptor that is equal or greater to that of ACh.
(§2) nAChR agonist response, from which receptor activation can be determined can, for example, be generated using an appropriate cell-based assay. Cells designed to express a particular nAChR receptor subtype and generate an electrical current response when bound to and activated by a nAChR agonist can be used to characterize the agonist profile of a compound and the amount of receptor activation thus determined. An example of a generic protocol is described below.
(§3) Cells that express a particular human nAChR subtype are first exposed to ACh. ACh binds and activates the receptor, thereby evoking a current. The concentration of the ACh is chosen to elicit the maximum response of the receptor (e.g., 1280 micromolar ACh). This current is recorded as the ACh response and serves as the 100% nAChR agonist response and to which responses to other nAChR agonists are compared. […] The current evoked by exposure to the nAChR agonist is measured and recorded for each nAChR concentration. […] The nAChR agonist response is then calculated as a percentage of the ACh response.
(§4) A nAChR agonist evoking a response equal to or greater than the maximum ACh response determined at the same receptor type is a full agonist. […]

[2] = tested on: T2, nAChR subtype alpha3alpha5beta4 (Homo sapiens); test: as above; assay type: cell-based; conditions: response relative to ACh response
T2 construct: expressed in transfected cells
From the text: as §1, §2
(§5) Cells that express a particular human nAChR subtype are first exposed to ACh. ACh binds and activates the receptor, thereby evoking a current. […] This current is recorded as the ACh response and serves as the 100% nAChR agonist response and to which responses to other nAChR agonists are compared. After washing, the cells are exposed to a nAChR agonist at various concentrations (e.g., 0.1, 0.3, 1, 3, 10, 30, 100, and 300 micromolar). The current evoked by exposure to the nAChR agonist is measured and recorded for each nAChR concentration. This nAChR agonist response data is then normalized to unity versus the maximal ACh evoked current and plotted as a function of the logarithm of the nAChR agonist concentration. The nAChR agonist response is then calculated as a percentage of the ACh response.
(§6) A nAChR agonist evoking a response equal to or greater than the maximum ACh response determined at the same receptor type is a full agonist. In some cases, a nAChR agonist evoking a response of less than 100% of the ACh response may still be characterized a full agonist, taking into account experimental variability. […] In some cases, a nAChR agonist evoking 90% of the ACh response or greater is considered a full agonist. […] In some cases, a nAChR agonist evoking 80% of the ACh response or greater is considered a full agonist.

nAChR subtype alpha7 = target: T3, nAChR subtype alpha7 (Homo sapiens, UniProt P36544); test: as above; assay type: cell-based; conditions: for agonist characterization at nAChR subtype alpha7: response relative to ACh response
T3 construct: expressed in transfected cells
From the text: as §1, §2, §5, §6

[3] = target: T4, nAChR subtype alpha3beta4 (Homo sapiens, UniProt P30926+P32297); test: as above; assay type: cell-based; conditions: response relative to ACh response
T4 construct: expressed in transfected cells
From the text: as §1, §2, §5, §6

[4] = target: T5, nAChR subtype alpha4alpha6beta2 (Homo sapiens, UniProt P17787+P43681+Q15825); test: as above; assay type: cell-based; conditions: response relative to ACh response
T5 construct: expressed in transfected cells
From the text: as §1, §2, §5, §6

[5] = target: T6, nAChR subtype alpha4beta2 (Homo sapiens, UniProt P17787+P43681); test: as above; assay type: cell-based; conditions: response relative to ACh response
T6 construct: expressed in transfected cells
From the text: as §1, §2, §5, §6

tear film [6] = test: Mesoscale discovery (MSD) assay of hNGFβ in porcine tears after lacrimal gland transduction; assay type: in vivo, pigs (Sus scrofa domesticus); conditions: pigs given AAV9-hNGFβ; Day 28 (0.03 mg varenicline solution each nostril) vs Day 21 and Day 35 (no nasal spray); data not shown
[7] = target: T7, nAChR subtype alpha6beta2 (Homo sapiens, UniProt P17787+Q15825); test: nAChR agonist response (evoked current compared with ACh response) in cells expressing a nAChR subtype; assay type: cell-based; conditions: response relative to ACh response
T7 construct: expressed in transfected cells
From the text: as §1, §2, §3, §4

tear film [8] = test: hNGF concentration in tear film collected on Schirmer test strips (ELISA), with and without intranasal varenicline; assay type: in vivo, Dutch-Belted rabbits; conditions: rabbits given rAAV9.hNGF intralacrimally; intranasal varenicline on days 21, 28 and 41
Description: FIG. 8 is a plot showing the concentration of hNGF in tear film in animals treated with AAV.hNGF and varenicline. Protein concentration was measured using Schirmer tear strips to collect tear film from Dutch-belted rabbits at the indicated number of days following intralacrimal administration of AAV2.hNGF, AAV5.hNGF, or AAV9.hNGF. At days 21, 28, and 41, tear film was collected following the intranasal administration of the tear inducing agent, varenicline. Control animals had no injection of AAV.
A Schirmer tear test was performed to collect eye moisture from the animals on Days 7, 14, 21, 28, 41, and 42. Test strips were placed inside the lower eyelid for approximately 1 minute. The paper was removed and placed into separate tubes and frozen at −80° C. for subsequent analysis. Schirmer test strips were collected following intranasal administration of varenicline on Days 21, 28, and 41. Test strips were placed inside the lower eyelid for approximately 1 minute. The paper was removed and placed into separate tubes and frozen at −80° ° C. for subsequent analysis. Protein content absorbed onto Schirmer's test strips was analyzed for concentration of hNGF by ELISA assay.
A Schirmer tear test was performed to collect eye moisture from the animals on Days 7, 14, 21, 28, 41, and 42. […] Protein content absorbed onto Schirmer's test strips was analyzed for concentration of hNGF by ELISA assay.

subjects with dry eye = conditions: 28-day course of 0.1% ophthalmic formulation, Phase II; cited from earlier work

T3 sequence (P36544 23-502): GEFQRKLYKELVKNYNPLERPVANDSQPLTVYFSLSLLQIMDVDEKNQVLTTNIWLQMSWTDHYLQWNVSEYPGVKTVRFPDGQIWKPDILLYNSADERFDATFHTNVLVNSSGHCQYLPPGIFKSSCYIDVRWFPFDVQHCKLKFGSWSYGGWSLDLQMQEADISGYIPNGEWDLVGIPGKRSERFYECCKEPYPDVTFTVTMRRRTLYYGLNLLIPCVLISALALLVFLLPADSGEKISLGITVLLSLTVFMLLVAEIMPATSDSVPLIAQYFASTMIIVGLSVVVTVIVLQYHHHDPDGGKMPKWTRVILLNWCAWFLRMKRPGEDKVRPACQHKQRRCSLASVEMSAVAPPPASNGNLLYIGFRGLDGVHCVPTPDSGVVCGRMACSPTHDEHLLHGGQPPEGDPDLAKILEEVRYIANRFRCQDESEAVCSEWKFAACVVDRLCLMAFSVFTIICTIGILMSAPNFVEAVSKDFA
T4 sequence (P32297 32-505): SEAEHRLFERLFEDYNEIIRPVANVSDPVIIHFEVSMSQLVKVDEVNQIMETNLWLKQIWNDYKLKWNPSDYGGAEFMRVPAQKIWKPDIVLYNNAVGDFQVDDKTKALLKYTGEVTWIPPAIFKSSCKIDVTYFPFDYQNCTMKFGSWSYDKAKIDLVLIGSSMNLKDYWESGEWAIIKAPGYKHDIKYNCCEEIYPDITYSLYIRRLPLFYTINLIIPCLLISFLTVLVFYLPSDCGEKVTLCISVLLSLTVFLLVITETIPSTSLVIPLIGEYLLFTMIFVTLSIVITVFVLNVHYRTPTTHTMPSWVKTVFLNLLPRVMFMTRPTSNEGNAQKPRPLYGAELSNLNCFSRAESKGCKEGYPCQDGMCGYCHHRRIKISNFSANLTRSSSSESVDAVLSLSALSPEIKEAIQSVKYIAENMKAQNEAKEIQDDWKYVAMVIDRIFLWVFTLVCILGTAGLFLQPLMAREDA
T4 sequence (P30926 22-498): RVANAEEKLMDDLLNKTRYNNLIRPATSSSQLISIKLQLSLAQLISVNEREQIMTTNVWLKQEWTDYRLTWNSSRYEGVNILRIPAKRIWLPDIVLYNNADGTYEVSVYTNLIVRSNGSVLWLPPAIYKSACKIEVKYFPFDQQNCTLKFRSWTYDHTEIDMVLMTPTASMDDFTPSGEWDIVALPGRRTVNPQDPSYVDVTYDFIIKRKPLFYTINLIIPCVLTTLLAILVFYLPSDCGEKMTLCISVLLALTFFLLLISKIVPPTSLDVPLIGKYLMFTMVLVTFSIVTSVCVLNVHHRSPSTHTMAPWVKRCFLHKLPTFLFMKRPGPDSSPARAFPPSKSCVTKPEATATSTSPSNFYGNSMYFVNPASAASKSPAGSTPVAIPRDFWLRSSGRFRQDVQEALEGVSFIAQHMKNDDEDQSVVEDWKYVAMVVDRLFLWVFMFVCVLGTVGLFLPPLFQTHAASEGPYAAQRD
T2 sequence (P32297 32-505): as the sequence (P32297 32-505) above
T2 sequence (P30532 23-468 partner): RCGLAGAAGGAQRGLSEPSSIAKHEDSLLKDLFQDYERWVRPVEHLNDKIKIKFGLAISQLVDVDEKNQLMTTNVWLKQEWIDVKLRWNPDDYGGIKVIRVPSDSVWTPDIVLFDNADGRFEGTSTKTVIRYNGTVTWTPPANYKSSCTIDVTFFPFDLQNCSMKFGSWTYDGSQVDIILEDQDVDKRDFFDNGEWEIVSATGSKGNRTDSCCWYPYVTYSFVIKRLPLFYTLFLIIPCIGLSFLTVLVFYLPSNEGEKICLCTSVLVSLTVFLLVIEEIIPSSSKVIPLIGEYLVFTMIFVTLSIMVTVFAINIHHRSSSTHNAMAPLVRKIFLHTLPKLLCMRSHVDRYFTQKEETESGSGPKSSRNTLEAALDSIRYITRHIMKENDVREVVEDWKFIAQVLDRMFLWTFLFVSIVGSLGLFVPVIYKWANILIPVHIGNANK
T2 sequence (P30926 22-498, further chain): as the sequence (P30926 22-498) above
T5 sequence (P43681 29-627 limits assumed): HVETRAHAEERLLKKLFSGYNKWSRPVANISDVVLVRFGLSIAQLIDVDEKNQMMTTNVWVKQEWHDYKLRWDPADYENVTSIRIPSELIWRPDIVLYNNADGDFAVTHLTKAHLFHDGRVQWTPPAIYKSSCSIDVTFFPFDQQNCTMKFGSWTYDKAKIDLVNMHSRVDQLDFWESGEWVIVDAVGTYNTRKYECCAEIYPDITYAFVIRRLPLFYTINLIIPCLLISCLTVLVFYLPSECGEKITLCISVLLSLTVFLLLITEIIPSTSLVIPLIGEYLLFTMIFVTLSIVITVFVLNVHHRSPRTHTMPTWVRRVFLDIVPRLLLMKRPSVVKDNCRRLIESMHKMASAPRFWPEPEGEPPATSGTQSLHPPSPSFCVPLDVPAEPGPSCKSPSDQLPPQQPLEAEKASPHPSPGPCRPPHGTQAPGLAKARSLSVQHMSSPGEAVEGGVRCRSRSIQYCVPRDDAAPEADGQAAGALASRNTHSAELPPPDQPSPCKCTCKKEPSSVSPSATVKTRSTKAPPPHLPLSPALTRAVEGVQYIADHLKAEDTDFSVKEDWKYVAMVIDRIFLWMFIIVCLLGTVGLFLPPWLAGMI
T5 sequence (Q15825 26-494): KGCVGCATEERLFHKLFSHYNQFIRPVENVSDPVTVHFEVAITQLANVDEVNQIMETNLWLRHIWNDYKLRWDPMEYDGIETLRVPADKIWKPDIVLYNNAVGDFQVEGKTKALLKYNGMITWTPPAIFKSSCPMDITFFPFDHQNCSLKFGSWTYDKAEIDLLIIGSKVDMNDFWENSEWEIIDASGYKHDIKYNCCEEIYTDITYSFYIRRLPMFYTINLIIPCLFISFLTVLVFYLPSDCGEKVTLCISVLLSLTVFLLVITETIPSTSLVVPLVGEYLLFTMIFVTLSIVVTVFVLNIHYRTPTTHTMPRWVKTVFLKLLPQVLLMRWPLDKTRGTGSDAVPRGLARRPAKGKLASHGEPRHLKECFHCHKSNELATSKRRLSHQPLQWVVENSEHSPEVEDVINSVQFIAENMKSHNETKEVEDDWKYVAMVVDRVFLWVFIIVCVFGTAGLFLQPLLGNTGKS
T5 sequence (P17787 26-502): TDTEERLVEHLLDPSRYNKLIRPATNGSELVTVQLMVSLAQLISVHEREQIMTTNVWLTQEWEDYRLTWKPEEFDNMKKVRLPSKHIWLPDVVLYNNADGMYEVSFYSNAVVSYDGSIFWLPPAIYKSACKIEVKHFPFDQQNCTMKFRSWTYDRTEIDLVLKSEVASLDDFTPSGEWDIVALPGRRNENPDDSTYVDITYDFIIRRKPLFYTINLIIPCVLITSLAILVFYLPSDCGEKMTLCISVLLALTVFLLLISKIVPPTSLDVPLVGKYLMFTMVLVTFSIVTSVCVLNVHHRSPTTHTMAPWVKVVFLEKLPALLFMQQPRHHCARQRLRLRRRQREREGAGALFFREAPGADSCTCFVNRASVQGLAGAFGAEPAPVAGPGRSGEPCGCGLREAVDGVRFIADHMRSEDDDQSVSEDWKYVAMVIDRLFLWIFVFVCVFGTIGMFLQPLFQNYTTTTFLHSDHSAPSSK
T6 sequence (P43681 29-627 limits assumed): as the sequence (P43681 29-627 limits assumed) above
T6 sequence (P17787 26-502): as the sequence (P17787 26-502) above
T7 sequence (Q15825 26-494): as the sequence (Q15825 26-494) above
T7 sequence (P17787 26-502): as the sequence (P17787 26-502) above
T1 sequence (P32297 32-505): as the sequence (P32297 32-505) above
T1 sequence (P17787 26-502): as the sequence (P17787 26-502) above

Compound	agonist characterization at nAChR subtype alpha3beta2 [1]	agonist characterization at nAChR subtype alpha3alpha5beta4 [2]	agonist characterization at nAChR subtype alpha7 (nAChR subtype alpha7)	agonist characterization at nAChR subtype alpha3beta4 [3]	agonist characterization at nAChR subtype alpha4alpha6beta2 [4]	agonist characterization at nAChR subtype alpha4beta2 [5]	effect of nasal spray on tear hNGFβ protein concentration (tear film [6])	agonist characterization at nAChR subtype alpha6beta2 [7]	increase of hNGF concentration in the Schirmer strip over the levels measured at the 7 and 14 day collections (tear film [8])	percent of the maximal ACh-evoked current (nAChR subtype alpha7; 300 micromolar concentration, subtype alpha7) [%]	effect on corneal staining (subjects with dry eye)	effect on ocular discomfort (subjects with dry eye)
C(=C\[C@H]1CCNC1)/c1cncnc1 [Compound 1, (R)-5-((E)-2-pyrrolidin-3-ylvinyl)pyrimidine]	partial agonist	full agonist	weak partial agonist	full agonist	full agonist	full agonist	–	–	–	–	–	–
O=C(O)C(O)C(O)C(=O)O.c1cnc2cc3c(cc2n1)C1CNCC3C1 [Varenicline, varenicline]	–	partial agonist	full agonist	partial agonist	partial agonist	partial agonist	increased tear hNGFβ protein concentration	partial agonist	up to 3 fold	–	–	–
C(=C\[C@H]1CCNC1)/c1cncnc1.O=C(O)CC(O)(CC(=O)O)C(=O)O [compound 1 citrate, (R)-5-((E)-2-pyrrolidin-3-ylvinyl)pyrimidine mono-citrate]	–	–	–	–	–	–	–	–	–	25	–	–
Tβ4: 43-amino acid peptide, SEQ ID NO: 26; tested as 0.1% Tβ4 ophthalmic formulation (SDKPDMAEIEKFDKSKLKKTETQEKNPLPSKETIEQEKQAGES; listed as Homo sapiens)	–	–	–	–	–	–	–	–	–	–	significant positive effects	significant positive effects
